{"source": "patent US20170128514A1", "about": "“PHARMACEUTICAL COMPOSITION FOR TREATING CARDIO-CEREBROVASCULAR DISEASES AND METHOD FOR PREPARING THE SAME” (priority 2014, published 2017)", "origin": "cited, not measured here", "key": {"[1]": {"tested_on": "acute coronary syndrome (ACS)", "conditions": "human, in vivo"}, "[2]": {"tested_on": "thrombocytopenia caused by heparin"}}, "data": [{"substance": "hirudin", "values": [{"measurement": "efficacy in treating acute coronary syndrome (ACS) compared with heparin", "setting": "[1]", "value": "more significant than the heparin"}, {"measurement": "patients with blood platelets recovered and normal", "setting": "[2]; 14.4 hrs. after the treatment", "value": 88.7, "unit": "%"}, {"measurement": "bleeding", "setting": "[2]; in vivo", "value": "bleeding only occurs in a dose much larger than the required dose for anti-coagulation"}]}]}
